Assay results reported in patent US9649324B2, “Use of tylvalosin as antiviral agent” (ECO ANIMAL HEALTH LIMITED, priority 2006, dated 2017).

Assays:
pig white blood cells = test: Intracellular accumulation in pig white blood cells; format: in vitro ADME
Procedure: (§1) Pig blood was collected in Heparin-coated BD vacutainers (6). 20 mL of blood and 30 mL of phosphate buffered saline (PBS) were mixed in a 50 mL conical centrifuge tube. This was repeated in order to obtain 3 such tubes. The mixtures were centrifuged for 10 min at 2050×g. The white blood cells, together with some red blood cells below, were harvested into a 50 mL conical centrifuge tube. PBS was added to about 50 mL. A 63% solution of Percoll was made as follows: 6.3 mL Percoll (Sigma), 1.0 mL 1.5 M NaCl, 2.7 mL H2O. 10 mL of 63% Percoll was added to each of two 50 mL conical centrifuge tubes. 25 mL of the resuspended white blood cells were carefully layered on top of the each of the Percoll solutions. A sharp interface was produced. The material was centrifuged at 3000×g for 10 min. […] The white blood cells were harvested in PBS (50 mL) and centrifuged at 500×g for 10 min. The cell pellet was resuspended in medium (Glasgow minimum essential medium containing penicillin and streptomycin). A viable cell count was made using trypan blue. The same method used for isolation of pig WBCs was used for the chicken WBCs, with the exception that heparin (100 I.U./mL) was prepared and mixed with an equal volume of chicken whole blood.
Cells were incubated with 10 mg/mL of each antibiotic. All tubes were placed on a rotary mixing machine, at 37° C. Supernatant and cell samples were harvested at the times described in the figure legends. Duplicate samples were used for each antibiotic for each time point.
(§2) All the supernatant and cell samples were transported frozen (at approximately −20° C.) to York Bioanalytical Solutions (York, England) for analysis. Briefly, 0.25 g of buffer (RPMI medium containing 10% FCS) was weighed into a polypropylene tube. A 50 μL volume of the appropriate working solution was added to the quality control (QC) samples. Methanol (50 μL) was added to each blank sample used for preparation of calibration standards, recovery samples and reagent blanks. A 2.5 mL volume of 0.1 M phosphate buffer was added to each sample, vortex mixed for approximately 1 min and then centrifuged at 3220×g for 10 min at 4° C.
(§3) For the liquid-liquid clean-up phase, an aliquot (100 μL) of the supernatant was transferred to a polypropylene tube. The pH was adjusted to pH 8-8.5 by the addition of 0.1 M NaOH, and vortex mixed. Ethyl acetate (5 mL) was added and after capping, the whole mixture was shaken for 10 min and then centrifuged at 3220×g for 10 min at 4° C.
(§4) Ammonium acetate (20 mM; pH native)—formic acid, 1000:3, v/v (100 μL) was added to each well in a 2 mL polypropylene collection plate. An aliquot of the ethyl acetate mixture (100 μL) was transferred to the polypropylene collection plate and evaporated under nitrogen (40° C.) until the ethyl acetate was fully evaporated whilst the ammonium acetate remained. Methanol (100 μL) was added to each well, excluding the calibration standards.
(§5) To each well containing a calibration standard, 100 μL of the appropriate calibration working solution was added. Samples were then vortex mixed for at least 10 min and submitted for liquid chromatography with tandem mass spectrometric analysis. The method stated was applicable to the samples of media (and the calibration standards and quality control samples).
(§6) For the cells, the sample tubes were weighed, and 100 μL of acetonitrile was added. The samples were vortex mixed for 10 sec, then centrifuged at 10285×g at 4° C. for 5 min. The sample was transferred to a polypropylene tube. The original sample tube was washed with 0.1 M phosphate buffer (1 mL). This was transferred to the polypropylene tube. A second wash of 1 mL was made, then a final wash of 0.5 mL. The polypropylene tube was now at the same stage as the end of the liquid extraction, but with the cells present rather than media. This was then taken through the sample preparation as described above. […]

Caco-2 cells = test: Intracellular accumulation and trans-epithelial transport in polarised Caco-2 cells; format: in vitro ADME, human; conditions: Caco-2, 10 μg/mL, apical administration
Procedure: Caco-2 cells were seeded at a density of 0.8×10^6 cells per well of a Transwell Clear filter 6 well plate, 0.4 μm pore size. The cells were incubated with 2 mL medium in both apical and basolateral chambers. This medium was replaced every 2 days for 10-14 days. Transepithelial resistance was measured using Millicell ERS apparatus (Millipore) at day 7, 10 and/or 14 in order to identify when the cells had become polarised. Readings of >1000 Ω were indicative of polarised cells. […]
as §2, §3, §4, §5
(§7) For the cells, the sample tubes were weighed, and 100 μL of acetonitrile was added. The samples were vortex mixed for 10 sec, then centrifuged at 10285×g at 4° C. for 5 min. The sample was transferred to a polypropylene tube. The original sample tube was washed with 0.1 M phosphate buffer (1 mL). This was transferred to the polypropylene tube. A second wash of 1 mL was made, then a final wash of 0.5 mL. The polypropylene tube was now at the same stage as the end of the liquid extraction, but with the cells present rather than media. This was then taken through the sample preparation as described above. The original sample tubes were allowed to dry (i.e. any remaining solvent evaporated off) and were then reweighed to determine the weight of cells in the sample, to allow the concentration per gram of cells to be determined.

[1] = test system: VR2332 (US strain of PRRSV); test: VR2332 (US strain of PRRSV) entry assay in MA104 cells (Example 10); conditions: 4 h pretreatment, moi 10, overnight
LLC-PK1 cells = test: Intracellular accumulation in pig kidney epithelial cells; format: in vitro ADME; conditions: LLC-PK1, 10 μg/mL
Procedure: LLC-PKI cells in 6 cm^2 plastic tissue culture dishes were incubated with 10 μg/mL of the different macrolides. Cells and medium were harvested as described above at 30, 75 and 120 min.
as §2, §3, §4, §5, §7

[2] = test system: chicken white blood cells; test: Intracellular accumulation in chicken white blood cells; format: in vitro ADME; conditions: chicken white blood cells, 10 μg/mL
Procedure: as §1
All tubes were placed on a rotary mixing machine, at 37° C. Supernatant and cell samples were harvested at the times described in the figure legends. Duplicate samples were used for each antibiotic for each time point.
as §2, §3, §4, §5, §6

PRRSV = conditions: has been shown; cited from earlier work
HRT-18 cells = test: Intracellular accumulation of macrolides in HRT-18 cells; format: in vitro ADME, human; conditions: HRT-18 cells, 10 μg/mL antibiotic
Procedure: HRT-18 cells, in 6 cm tissue cultures dishes, were incubated in the presence of 0.5, 5 or 50 μg/mL tylvalosin. After 4 h, two dishes for each tylvalosin concentration and two dishes without antibiotic were removed from the incubator. A sample of medium (about 1 mL) was removed, placed in a labelled Eppendorf tube and stored at −20° C. The rest of the medium was then removed. Each of the cell monolayers was washed twice in PBS, using approximately 5 mL for each wash. The plunger from a 2 mL plastic syringe was used to gently scrape off the cells. PBS (500 μL) was added to the dish and the cells gently removed into this medium, using a micropipette. The sample was then placed in an Eppendorf tube and centrifuged at 8000×g in a bench centrifuge (Biofuge pico, Heraeus instruments) for 13 sec. An obvious cell pellet formed. The supernatant was removed using a micropipette and the cell material was stored at −20° C. in a labelled Eppendorf tube. After approximately 24 h the remaining tissue culture dishes were removed from the incubator and treated as described above for the 4 h samples. All the samples, including the 4 h samples, were then stored at −70° C.
HRT-18 cells were prepared as described above and used at passage 42. Stock solutions of antibiotics (either tylvalosin, tylosin or tilmicosin) were diluted in growth media and 10 μg/mL each antibiotic was added to the confluent cell monolayers. The cells were incubated at 37° C. in a 5% CO2 atmosphere for either 4 h or 24 h. The media and cells were harvested and tested for antibiotic, as described above.
as §2, §3, §4, §5, §6

## CC[C@H]1OC(=O)C[C@@H](O)[C@H](C)[C@@H](O[C@@H]2O[C@H](C)[C@@H](O)[C@H](N(C)C)[C@H]2O)[C@@H](CCN2C[C@H](C)C[C@H](C)C2)C[C@@H](C)C(=O)/C=C/C(C)=C/[C@@H]1CO[C@@H]1O[C@H](C)[C@@H](O)[C@@H](OC)[C@H]1OC (single isomer, unassigned) [tilmicosin, reference compound]
Pig white blood cells; 10 min
  average intracellular concentration: 31.25 μg/mg cells
  average intracellular:extracellular ratio (IC:EC): 4.33
Pig white blood cells; 10 min, listed as Tilmicosin
  average intracellular:extracellular ratio (IC:EC): 4
Pig white blood cells; 20 min
  intracellular concentration: 36 μg/mg cells
Caco-2 cells; 120 min
  average intracellular concentration: 8.6 μg/mg cells
Caco-2 cells; 240 min
  average intracellular concentration: 16.05 μg/mg cells
  basolateral chamber content as average % of the apical chamber value: 1.08%
  intracellular:extracellular ratio (fold concentration): 2.5 fold
Cell culture
  toxicity in cell culture assays of antiviral potency: much more toxic than tylvalosin
[1]
  inhibition of VR2332 infection: partial inhibition
LLC-PK1 cells; 75 min
  average intracellular concentration: 4.98 μg/mg cells
LLC-PK1 cells; 120 min
  intracellular:extracellular ratio: 1.7
[2]; 15 min
  average intracellular concentration: 37.1 μg/mg cells
[2]; 60 min
  intracellular concentration: 71.3 μg/mg cells
PRRSV
  effect on PRRSV: effective
HRT-18 cells; 4 h
  average intracellular concentration: 7.24 μg/mg cells
  intracellular:extracellular ratio: 1.32 fold
HRT-18 cells; 24 h
  average intracellular concentration: 32.45 μg/mg cells
  intracellular:extracellular ratio: 4.64 fold
